# Experimental data as given in patent US20070105879A1 (HALEX ISTAR INDUSTRIA FARMACEUTICA LTDA., priority 2003, published 2007).
# Where a name gives a salt, the structure may show the parent alone. Read-outs that look alike come from different tables or passages of the source.
# Columns and labels:
# cytomegalovirus = details: drug derived from acyclovir, U.S. Pat. No. 4,355,032; cited from earlier work
# [1] = sodium salt / reconstituted state-of-the-art solution, cited from earlier work
# [2] = cited from earlier work
# [3] = pH and appearance of ganciclovir solutions; type: physicochemical; details: glucose solution, formulation tests
# Source text: The earlier tests were tried with the 9-((1,3-dihydroxypropan-2-iloxy)methyl)-2-amine-1-purin-6(9H)-one molecule used for preparing the lyophilized product.
# Stabilizing the molecule in this pH, allowed lowering hazards during manipulation, once the previous solution was too much alkaline (pH=11), and was too much irritating after its reconstitution being not possible to be in contact with the skin, mucous membranes and eyes. Using appropriate glasses and gloves were necessary when manipulating this substance.
# Yes, but can cause irritation in the site of the injection due the elevate pH of the injectable solution (pH˜11). It also can be done by subcutaneous administration, but with the same local irritation risk.
# Because the resulting solution is strongly alkaline (pH=11) and irritating after its reconstitution, one must avoid the contact with the skin, mucous membranes and the eyes. Using glasses and gloves are necessary when manipulating it.
Structure (SMILES),"activity against cytomegalovirus, times greater (cytomegalovirus) [times]",pH of solution [1],"Stability (time) ([2]; room temperature, reconstituted inside its own vial) [h]",appearance of solution [3],"pH of solution ([1]; listed as sodium Ganciclovir, sodium salt)",pH of solution ([1]; sodium salt),"physically and chemically stable (time) ([2]; reconstituted with sterile water for injection, diluted with sodium chloride 0.9% in PVC bags, refrigeration at 5° C.) [days]"
"Nc1nc2c(ncn2COC(CO)CO)c(=O)[nH]1 [Ganciclovir, 9-((1,3-dihydroxypropan-2-iloxy)methyl)-2-amine-1H-purin-6(9H)-one]",100,11,12,yellowish and oxidized solution,,,
"Nc1nc(O)c2ncn(COC(CO)CO)c2n1 [Ganciclovir sodium salt, 9-((1,3-dihydroxypropan-2-iloxy)methyl)-2-amine-1H-purin-6(9H)-one sodium salt]",,,,,11,about 11,14
